According to patent US8722714B2, “Oxazolidine derivatives as NMDA antagonists” (The Honk Kong University of Science and Technology, priority 2008, dated 2014):

Columns and labels:
[1] = tested on: MCAO rats; experiment: Middle cerebral artery occlusion (MCAO) model: mNSS, infarct volume, edema volume; format: in vivo, rat; details: for edema volume (% of the ipsilateral hemisphere) / infarct volume: 2 h MCAO; for infarct volume: mean±S.E.M.
Experimental: Before surgery, male rats were 259-354 g fasted overnight with free access to water. Briefly, rats were anesthetized with chloral hydrate (400 mg/kg, ip). Through a midline neck incision, the right common and external carotid artery were isolated from muscles and coagulated. A suture with a blunted tip was inserted into the internal carotid through the external carotid artery stump and advanced up to 21 mm or till resistance was […]. A thermostatically regulated heating pad was used to maintain temperature at 37° C. After 2 h of MCAO, the suture was removed to restore blood flow. In sham group, the same surgical procedure was performed except that the suture was introduced into the external carotid artery but not advanced. After surgery, the incision was sutured and the rats were returned to their cage with free access to water and food.
Neurological function of ischemic rats was graded on modified Neurological Severity Score (mNSS) system in a range of 0 to 18 (normal score, 0; maximal deficit score, 18). The mNSS system is a composite evaluation of motor and sensory function, balance impairment and reflex abnormality of ischemic animals (Chen et al., 2001 Intravenous administration of human umbilical cord blood reduces behavioral deficits after stroke in rats. Stroke 32:2682-8.). In the severity scores of injury, 1 score point is awarded for the inability to perform the test or for the lack of a tested reflex; thus, the higher the score, the more severe is the injury.
At 3 days after ischemia, whole brains were rapidly removed. The brain were sliced into 2-mm-thick coronal sections and stained with 1% 2,3,5-triphenyltetrazoliumchloride (TTC, Sigma) at 37° C. for 30 minutes in the dark, followed by fixation with 4% paraformaldehyde (PFA) at 4° C. overnight. The sections were scanned with scanner connected to a computer. The unstained areas, defined as infarct tissue, were calculated by using an image analysis program. The infarct volume was calculated by measuring the unstained area in each slice. The infarct area in each slice was calculated by subtracting the normal ipsilateral (ischemic) area from that of the contralateral (non-ischemic) hemisphere to reduce errors due to cerebral edema and was presented as a percentage relative to the area of the contralateral hemisphere.
The contralateral hemispheric volume was used as a control for calculation of ischemia-induced brain edema in the ipsilateral hemisphere. A net difference in hemispheric volumes was gained by subtracting the volume of the […] from that of the infracted hemisphere. Brain swelling was expressed as a percentage of the net difference in ischemic hemispheric volume over the contralateral hemispheric volume.
Rats were subjected to middle cerebral artery occlusion (MCAO) to induce focal cerebral ischemia. Neurological functions of these ischemic rats were then graded on a modified Neurological Severity Score (mNSS) system from a range of 0 to 18 (normal score, 0; maximal deficit score, 18). The mNSS system is a composite evaluation of motor and sensory function, balance impairment and reflex abnormality of ischemic animals. […]
3 days after ischemia, whole brains were rapidly removed, sliced into 2-mm-thick coronal sections, stained with 1% 2,3,5-triphenyltetrazoliumchloride (TTC) and fixed (FIG. 6a). […] Infarct volume was measured in the coronal brain sections.
Infarct volume and edema volume were also measured. […]

[2] = tested on: mice; experiment: Open Field Test (OFT); format: in vivo; details: 100 mg/kg p.o., 7 times, vs control group
[3] = tested on: ERK; experiment: Western blot detection of ERK phosphorylation in rat cortical neurons; format: cell-based; details: 500 μM; rat cortical neurons 11 DIV; vs DMSO control
Experimental: Embryonic day 18 Sprague Dawley rat pups were decapitated, their brains removed, and the cortices were isolated. Tissues were triturated and isolated neurons were plated onto 60 mm plate and cultured with Neurobasal medium supplemented with 2% B27 (Invitrogen). Experiments were performed after 10-12 days in vitro (DIV). Cultured cells were stimulated with a test compound or vehicle control (DMSO) for different time intervals and then lysed with RIPA buffer including protease inhibitors. Cell lysates were stored at −80° C. before use. Before being loaded, the lysates were heated to 95° C. for 10 min, vortexed and centrifuged for 7 min at 15,000×g. Supernatants were electrophoresed on 10% SDS-polyacrylamide gel and transblotted to nitrocellulose membrane. The membranes were washed with 5% (w/v) powdered milk dissolved in PBS with 0.1% Triton X-100, followed by incubation at 4° C. overnight with rabbit polyclonal against phospho-ERK or phosphor-AKT (1:1000, Cell Signaling Technology). Next, the membranes were washed and incubated with horseradish peroxidase (HRP)-conjugated secondary antibodies. The signal was visualized using ECL Western Blotting Kit. Blots were stripped and probed for total ERK or AKT expression. […]
Western blot analysis was performed on the total cell lysates. Antibodies against phospho-ERK1/2 and phospho-AKT were used and detected with HRP conjugated secondary antibodies. […]

[4] = target: T1, Adenosine A1 (Homo sapiens, UniProt P30542); experiment: Ligand binding assay (High-throughput Profile, CEREP)
T1 construct: CEREP, France (contract assay, High-throughput Profile)
T1 sequence (P30542 1-326): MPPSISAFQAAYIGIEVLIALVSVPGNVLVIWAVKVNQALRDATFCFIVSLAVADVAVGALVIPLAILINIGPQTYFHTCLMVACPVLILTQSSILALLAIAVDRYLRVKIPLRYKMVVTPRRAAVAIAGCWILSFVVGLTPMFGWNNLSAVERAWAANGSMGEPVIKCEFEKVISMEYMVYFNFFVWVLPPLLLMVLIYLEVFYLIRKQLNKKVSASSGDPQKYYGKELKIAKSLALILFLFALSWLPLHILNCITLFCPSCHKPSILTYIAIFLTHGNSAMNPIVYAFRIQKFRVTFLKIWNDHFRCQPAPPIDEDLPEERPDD
Experimental: (§1) To determine the pharmacological profile and potential targets of LC-02, 80 binding assays were performed (High-throughput Profile, CEREP, France). LC-02 was evaluated at a single concentration in these specific binding assays. […] A cutoff of 25% is considered as a moderate effect.
(§2) Compound LC-02 (10 μM) was subjected to ligand binding assays with human A3 and rat kappa receptor overexpressing cells. Results are expressed as a percent of control specific agonist response [100-(measured specific response/control specific agonist response)×100] obtained in the presence of LC-02.

[5] = target: T2, Adenosine A2A (Homo sapiens, UniProt P29274); experiment: as above
T2 construct: CEREP, France (contract assay, High-throughput Profile)
T2 sequence (P29274 whole entry): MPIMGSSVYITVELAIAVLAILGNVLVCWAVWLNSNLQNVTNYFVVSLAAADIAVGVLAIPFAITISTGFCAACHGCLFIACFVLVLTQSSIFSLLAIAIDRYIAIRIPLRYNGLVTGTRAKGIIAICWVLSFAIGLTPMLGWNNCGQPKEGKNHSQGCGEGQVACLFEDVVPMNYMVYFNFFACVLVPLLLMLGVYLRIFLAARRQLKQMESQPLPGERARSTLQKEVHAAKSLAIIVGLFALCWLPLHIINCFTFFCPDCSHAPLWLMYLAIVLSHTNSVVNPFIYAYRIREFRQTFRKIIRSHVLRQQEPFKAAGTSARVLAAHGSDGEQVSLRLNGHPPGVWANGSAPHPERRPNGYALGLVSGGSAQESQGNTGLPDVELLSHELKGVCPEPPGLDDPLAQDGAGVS
Experimental: as §1, §2

[6] = target: T3, Opioid (delta) (Homo sapiens, UniProt P41143); experiment: as above
T3 construct: CEREP, France (contract assay, High-throughput Profile)
T3 sequence (P41143 whole entry): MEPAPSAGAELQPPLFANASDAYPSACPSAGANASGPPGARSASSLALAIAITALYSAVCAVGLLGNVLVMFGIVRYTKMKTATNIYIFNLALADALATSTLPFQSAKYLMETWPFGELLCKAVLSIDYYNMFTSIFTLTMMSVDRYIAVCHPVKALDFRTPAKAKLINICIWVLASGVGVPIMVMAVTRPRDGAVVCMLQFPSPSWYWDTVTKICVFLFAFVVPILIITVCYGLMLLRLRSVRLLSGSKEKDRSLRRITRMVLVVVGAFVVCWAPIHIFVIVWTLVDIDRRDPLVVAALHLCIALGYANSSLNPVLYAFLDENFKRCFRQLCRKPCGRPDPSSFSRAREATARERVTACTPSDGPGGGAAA
Experimental: as §1, §2

CC[C@H]1N[C@@H](CC(C)C)C(CC)(CC)O1 [LC-02]
edema volume (% of the ipsilateral hemisphere) ([1]; 35 mg/kg): 2.44±0.43%
infarct volume ([1]; 35 mg/kg): 34.45%±3.38%
functional recovery, modified Neurological Severity Score (mNSS) ([1]; 70 mg/kg oral, 24, 48 and 72 hours after MCAO, vs vehicle): significantly improved functional recovery
edema volume (% of the ipsilateral hemisphere) ([1]; 70 mg/kg): 2.85±0.80%
infarct volume ([1]; 70 mg/kg, P<0.01): 18.49%±2.34%
total distance travelled in the open field [2]: did not significantly differ
phosphorylation of ERK [3]: induced phosphorylation of ERK after a 15-min treatment period and persisted to 60 min
inhibition at 10 µM [4]: 5%
inhibition at 10 µM [5]: 6%
inhibition at 10 µM [6]: 18%
